Test results taken from patent publication US20230278981A1, “DICHLOROPHENOL HSD17B13 INHIBITORS AND USES THEREOF” (INIPHARM, INC., priority 2020, published 2023).
pIC50: −log10 of the molar value.

Molecular target: HSD17B13 (Homo sapiens (Human), UniProt Q7Z5P4)
Assay: LC/MS estrone detection assay: conversion of estradiol to estrone by HSD17B13
Format: biochemical
Conditions: 4 μM estradiol, 6 mM NAD+, 30 nM HSD17B13 enzyme (E. coli expressed His-tagged), 2 hours at 26.5° C.
Summary of the method: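 His-tagged E. coli-expressed HSD17B13 (30 nM) with 4 μM estradiol and 6 mM NAD+ in 1 M potassium phosphate pH 7.4, 0.5% DMSO, 2 h at 26.5° C. Estrone and estradiol quantified by LC-MS/MS after MeCN quench with D4-estrone internal standard; activity as % of uninhibited enzyme, IC50 by four-parameter fit, duplicates.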

Sequence of HSD17B13 (Q7Z5P4 20-300): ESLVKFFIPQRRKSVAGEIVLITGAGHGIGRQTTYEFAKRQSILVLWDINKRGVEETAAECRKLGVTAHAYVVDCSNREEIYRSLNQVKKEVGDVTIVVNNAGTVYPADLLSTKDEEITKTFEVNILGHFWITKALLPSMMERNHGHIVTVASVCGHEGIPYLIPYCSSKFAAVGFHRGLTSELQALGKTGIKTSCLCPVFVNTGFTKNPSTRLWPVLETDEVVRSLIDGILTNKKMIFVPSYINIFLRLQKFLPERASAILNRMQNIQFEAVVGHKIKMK

| pIC50 | SMILES |
| --- | --- |
| ≥ 7.00 | Cc1nsc(NC(=O)c2cc(Cl)c(O)c(Cl)c2)c1C(=O)N[C@@H](C)c1ccccc1F [Example 126, (S)-5-(3,5-dichloro-4-hydroxybenzamido)-N-(1-(2-fluorophenyl)ethyl)-3-methylisothiazole-4-carboxamide] |
| < 5.00 | O=C(NCc1ccccc1OC(F)(F)F)C1CCCN1C(=O)c1cc(Cl)c(O)c(Cl)n1 (stereo not shown) [Example 127, 1-(4,6-dichloro-5-hydroxypicolinoyl)-N-(2-(trifluoromethoxy)benzyl) pyrrolidine-2-carboxamide] |
| < 5.00 | O=C(NCc1ccccc1OC(F)(F)F)C1CCCN1C(=O)c1cc(Cl)c(O)c(Cl)c1 (stereo not shown) [Example 128, 1-(3,5-dichloro-4-hydroxybenzoyl)-N-(2-(trifluoromethoxy)benzyl) pyrrolidine-2-carboxamide] |
| 6.30 to 7.00 | O=C(Nc1cccc2ncn(Cc3cccnc3Cl)c(=O)c12)c1cc(Cl)c(O)c(Cl)n1 [Example 129, 4,6-dichloro-N-{3-[(2-chloropyridin-3-yl)methyl]-4. oxo-3,4-dihydroquinazolin-5-yl}-5-hydroxypyridine-2-carboxamide] |
| 6.30 to 7.00 | O=C(Nc1cccc2ncn(Cc3ncccc3F)c(=O)c12)c1cc(Cl)c(O)c(Cl)c1 [Example 130, 3,5-dichloro-N-{3-[(3-fluoropyridin-2-yl)methyl]-4-oxo-3,4-dihydroquinazolin-5-yl}-4-hydroxybenzamide] |
| 6.30 to 7.00 | Cc1ccc2ncn(Cc3ccccc3OC(F)(F)F)c(=O)c2c1NC(=O)c1cc(Cl)c(O)c(Cl)n1 [Example 131, 4,6-dichloro-5-hydroxy-N-(6-methyl-4-oxo-3-{[2-(trifluoromethoxy)phenyl]methyl}-3,4-dihydroquinazolin-5-yl)pyridine-2-carboxamide] |
| ≥ 7.00 | O=C(Nc1ccc(F)c2ncn(Cc3ccccc3OC(F)(F)F)c(=O)c12)c1cc(Cl)c(O)c(Cl)c1 [Example 132, 3,5-dichloro-N-(8-fluoro-4-oxo-3-{[2-(trifluoromethoxy)phenyl]methyl}-3,4-dihydroquinazolin-5-yl)-4-hydroxybenzamide] |
| 6.30 to 7.00 | O=C(Nc1ccc(F)c2ncn(Cc3ccccc3OC(F)(F)F)c(=O)c12)c1cc(Cl)c(O)c(Cl)n1 [Example 133, 4,6-dichloro-N-(8-fluoro-4-oxo-3-{[2-(trifluoromethoxy)phenyl]methyl}-3,4-dihydroquinazolin-5-yl)-5-hydroxypyridine-2-carboxamide] |
| 6.00 to 6.30 | O=C(NC1CCCC1C(=O)NCc1ccccc1OC(F)(F)F)c1cc(Cl)c(O)c(Cl)n1 (stereo not shown) [Example 134, 4,6-dichloro-5-hydroxy-N-[2-({[2-(trifluoromethoxy)phenyl]methyl}carbamoyl)cyclopentyl] pyridine-2-carboxamide] |
| 6.30 to 7.00 | O=C(Nc1cccc2ncn(Cc3cccnc3F)c(=O)c12)c1cc(Cl)c(O)c(Cl)c1 [Example 137, 3,5-dichloro-N-{3-[(2-fluoropyridin-3-yl)methyl]-4-oxo-3,4-dihydroquinazolin-5-yl}-4-hydroxybenzamide] |
| 6.30 to 7.00 | O=C(Nc1cccc2ncn(Cc3cccnc3F)c(=O)c12)c1cc(Cl)c(O)c(Cl)n1 [Example 138, 4,6-dichloro-N-{3-[(2-fluoropyridin-3-yl)methyl]-4-oxo-3,4-dihydroquinazolin-5-yl}-5-hydroxypyridine-2-carboxamide] |
| 6.30 to 7.00 | O=C(Nc1cccc2ncn(Cc3ncccc3F)c(=O)c12)c1cc(Cl)c(O)c(Cl)n1 [Example 140, 4,6-dichloro-N-(3-((3-fluoropyridin-2-yl)methyl)-4-oxo-3,4-dihydroquinazolin-5-yl)-5-hydroxypicolinamide] |
| ≥ 7.00 | Cc1ccc(NC(=O)c2cc(Cl)c(O)c(Cl)n2)c2c(=O)n(Cc3ccccc3OC(F)(F)F)c(C)nc12 [Example 141, 4,6-dichloro-N-(2,8-dimethyl-4-oxo-3-(2-(trifluoromethoxy)benzyl)-3,4-dihydroquinazolin-5-yl)-5-hydroxypicolinamide] |
